Measured values from US10604524B2, “Pyrropyrimidine compounds as MNKs inhibitors” (LIFEARC, priority 2015, dated 2020).

Tests used:
Full-length human MNK2 = Full-length human MNK2 (Homo sapiens, UniProt Q9HBH9, T379D); assay: MNK2 biochemical IC50 assay (Caliper mobility shift)
[1] = test system: phosphorylation of eIF4E at ser209 in MV4.11 cell line; assay: cells; type: cell-based; settings: Homo sapiens; MV4.11 cells, 1.5 hr compound incubation, average of at least 2 independent experiments; read-out: plc50 elF4E (converted)
Procedure: MNK activity in cells was measured by monitoring the phosphorylation of eIF4E at ser209, the known endogenous substrate of MNK1/2, in cell lysates. […] The assay detection is based on the formation of sandwich antibody complexes coupled to donor and acceptor beads. Excitation at 680 nm causes the transfer of a singlet oxygen species between donor and acceptor beads when they are in close proximity by binding to the analyte […], which results in the emission of light at 520-620 nm.
Cells were then lysed and the Aphascreen Surefire protocol followed according to manufacturer's recommendations. 8 ul Acceptor beads (1:50 dilution in kit activation buffer) was added to lysate, shaken 150 rpm for 2 min and incubated for 1.5 hr at room temperature. 3 ul Donor beads (1:20 dilution in kit dilution buffer) were then added, shaken 150 rpm for 2 min and incubated for a further 1.5 hr at room temperature after which the plates were read on Pherastar FS using Alphascreen optic module.
Data were normalised relative to untreated DMSO only controls and curves repeated in duplicate within experiments. Data reported are averages of at least 2 independent experiments.

Full-length human MNK1 = Full-length human MNK1 (Homo sapiens, UniProt Q9BUB5, T385D); assay: MNK1 biochemical IC50 assay (Caliper mobility shift)
[2] = test system: B16 melanoma lung metastases; settings: in vivo; cited from earlier work
eIF4E phosphorylation = settings: after oral administration, normal mouse tissues and xenografted tumors; cited from earlier work
HCT116 xenograft = HCT116 xenograft models; cited from earlier work

Sequence of Full-length human MNK2 (Q9HBH9 whole entry T379D): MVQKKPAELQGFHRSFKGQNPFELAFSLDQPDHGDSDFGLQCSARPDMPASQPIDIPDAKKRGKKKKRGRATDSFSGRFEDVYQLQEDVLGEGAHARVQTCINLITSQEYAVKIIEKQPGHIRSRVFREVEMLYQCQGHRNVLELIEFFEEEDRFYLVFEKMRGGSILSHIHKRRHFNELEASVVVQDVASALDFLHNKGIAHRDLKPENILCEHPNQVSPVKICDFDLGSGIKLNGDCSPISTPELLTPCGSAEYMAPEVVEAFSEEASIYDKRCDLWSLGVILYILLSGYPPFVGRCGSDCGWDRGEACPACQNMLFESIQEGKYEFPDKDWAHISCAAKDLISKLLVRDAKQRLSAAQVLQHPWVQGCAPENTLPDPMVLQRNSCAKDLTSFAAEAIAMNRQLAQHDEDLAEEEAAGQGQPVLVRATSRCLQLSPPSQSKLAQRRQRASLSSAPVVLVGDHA
Sequence of Full-length human MNK1 (Q9BUB5 1-424 isoform Q9BUB5-2 T344D): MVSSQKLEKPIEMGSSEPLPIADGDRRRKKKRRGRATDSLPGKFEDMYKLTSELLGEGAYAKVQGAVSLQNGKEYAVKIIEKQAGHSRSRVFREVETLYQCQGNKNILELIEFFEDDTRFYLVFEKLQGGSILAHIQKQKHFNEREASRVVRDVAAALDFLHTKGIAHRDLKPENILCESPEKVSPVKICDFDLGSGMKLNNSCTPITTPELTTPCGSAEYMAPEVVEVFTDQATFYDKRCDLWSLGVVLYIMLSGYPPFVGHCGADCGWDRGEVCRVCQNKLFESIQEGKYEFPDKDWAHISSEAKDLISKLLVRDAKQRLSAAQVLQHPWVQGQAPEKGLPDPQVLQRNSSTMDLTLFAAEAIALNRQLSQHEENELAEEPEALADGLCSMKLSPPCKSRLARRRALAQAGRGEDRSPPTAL

SMILES	IC50 (Full-length human MNK2)	IC50 (Full-length human MNK1)	IC50 [1]	outgrowth of B16 melanoma lung metastases [2]	time to effectively block eIF4E phosphorylation (eIF4E phosphorylation)	tumor growth (HCT116 xenograft)
CC(=O)C1=C(O)C=C2Oc3c(C(N)=O)c(O)cc(O)c3[C@]2(C)C1=O [cercosporamide]	–	–	–	suppressing the outgrowth	≤ 30 min	reducing tumor growth
CC(C)Oc1ncccc1Nc1ncnc2ccn(C)c12 [Example 29, N-(2-isopropoxy-3-pyridyl)-5-methyl-pyrrolo[3,2-d]pyrimidin-4-amine]	100 nM	251 nM	50.1 nM	–	–	–
C[C@@H](CF)Oc1cc(F)ccc1Nc1ncnc2ccn(C)c12 [Example 22, N-[4-fluoro-2-[(1S)-2-fluoro-1-methyl-ethoxy]phenyl]-5-methyl-pyrrolo[3,2-d]pyrimidin-4-amine]	50.1 nM	100 nM	15.8 nM	–	–	–
Cn1ccc2ncnc(Nc3ccc(F)cc3OC3CC3)c21 [Example 24, N-[2-(cyclopropoxy)-4-fluoro-phenyl]-5-methyl-pyrrolo[3,2-d]pyrimidin-4-amine]	200 nM	501 nM	79.4 nM	–	–	–
CCn1ccc2ncnc(Nc3ccc(F)cc3OC(C)C)c21 [Example 1, 5-Ethyl-N-(4-fluoro-2-isopropoxy-phenyl)pyrrolo[3,2-d]pyrimidin-4-amine]	126 nM	200 nM	50.1 nM	–	–	–
CC(CF)Oc1cc(F)ccc1Nc1ncnc2ccn(C)c12 (racemic) [Example 26, Racemic-N-[4-fluoro-2-(2-fluoro-1-methyl-ethoxy)phenyl]-5-methyl-pyrrolo[3,2-d]pyrimidin-4-amine]	31.6 nM	79.4 nM	15.8 nM	–	–	–
CC(C)Oc1cc(F)ccc1Nc1ncnc2ccn(C(C)C)c12 [Example 3, N-(4-fluoro-2-isopropoxy-phenyl)-5-isopropyl-pyrrolo[3,2-d]pyrimidin-4-amine]	501 nM	1000 nM	158 nM	–	–	–
Cn1ccc2ncnc(Nc3ccc(F)cc3OC3CCOCC3)c21 [Example 13, N-(4-fluoro-2-tetrahydropyran-4-yloxy-phenyl)-5-methyl-pyrrolo[3,2-d]pyrimidin-4-amine]	158 nM	316 nM	63.1 nM	–	–	–
Cn1ccc2ncnc(Nc3ccc4[nH]ncc4c3)c21 [Example 14, N-(1H-indazol-5-yl)-5-methyl-pyrrolo[3,2-d]pyrimidin-4-amine]	398 nM	251 nM	398 nM	–	–	–
Cn1ccc2ncnc(Nc3ccc(F)cc3O[C@@H]3CCOC3)c21 [Example 16, N-[4-fluoro-2-[(3R)-tetrahydrofuran-3-yl]oxy-phenyl]-5-methyl-pyrrolo[3,2-d]pyrimidin-4-amine]	126 nM	251 nM	79.4 nM	–	–	–
C[C@H](CF)Oc1cc(F)ccc1Nc1ncnc2ccn(C)c12 [Example 23, N-[4-fluoro-2-[(1R)-2-fluoro-1-methyl-ethoxy]phenyl]-5-methyl-pyrrolo[3,2-d]pyrimidin-4-amine]	39.8 nM	126 nM	15.8 nM	–	–	–
CO[C@@H]1CCC[C@H](Oc2cc(F)ccc2Nc2ncnc3ccn(C)c23)C1 [Example 21, N-[4-fluoro-2-[(1S,3R)-3-methoxycyclohexoxy]phenyl]-5-methyl-pyrrolo[3,2-d]pyrimidin-4-amine]	79.4 nM	158 nM	25.1 nM	–	–	–
CC(C)Oc1cc(Cl)ccc1Nc1ncnc2ccn(C)c12 [Example 9, N-(4-chloro-2-isopropoxy-phenyl)-5-methyl-pyrrolo[3,2-d]pyrimidin-4-amine]	79.4 nM	158 nM	79.4 nM	–	–	–
CC(C)Oc1ccccc1Nc1ncnc2ccn(C)c12 [Example 28, N-(2-isopropoxyphenyl)-5-methyl-pyrrolo[3,2-d]pyrimidin-4-amine]	158 nM	398 nM	39.8 nM	–	–	–
Cc1ccc(Nc2ncnc3ccn(C)c23)c(OC(C)C)c1 [Example 8, N-(2-isopropoxy-4-methyl-phenyl)-5-methyl-pyrrolo[3,2-d]pyrimidin-4-amine]	1260 nM	3160 nM	501 nM	–	–	–
COCCn1ccc2ncnc(Nc3ccc(F)cc3OC(C)C)c21 [Example 5, N-(4-fluoro-2-isopropoxy-phenyl)-5-(2-methoxyethyl)pyrrolo[3,2-d]pyrimidin-4-amine]	2000 nM	3160 nM	1000 nM	–	–	–
COc1ccc(Nc2ncnc3ccn(C)c23)c(OC(C)C)c1 [Example 10, N-(2-isopropoxy-4-methoxy-phenyl)-5-methyl-pyrrolo[3,2-d]pyrimidin-4-amine]	1260 nM	10000 nM	200 nM	–	–	–
Cn1ccc2ncnc(Nc3ccc(F)cc3OC3CCC3)c21 [Example 17, N-[2-(cyclobutoxy)-4-fluoro-phenyl]-5-methyl-pyrrolo[3,2-d]pyrimidin-4-amine]	79.4 nM	200 nM	31.6 nM	–	–	–

Continued, in another order:

IC50 (Full-length human MNK2)	IC50 (Full-length human MNK1)	SMILES	IC50 [1]	outgrowth of B16 melanoma lung metastases [2]	time to effectively block eIF4E phosphorylation (eIF4E phosphorylation)	tumor growth (HCT116 xenograft)
1000 nM	1260 nM	CC(C)Oc1cc(F)ccc1Nc1ncnc2c(Cl)c(C(=O)NCCCN(C)C)n(C)c12 [Example 43, 7-Chloro-N-[3-(dimethylamino)propyl]-4-{[4-fluoro-2-(propan-2-yloxy)phenyl]amino}-5-methyl-5H-pyrrolo[3,2-d]pyrimidine-6-carboxamide]	794 nM	–	–	–
794 nM	15800 nM	CO[C@H]1CCCC[C@@H]1Oc1cc(F)ccc1Nc1ncnc2ccn(C)c12 [Example 37, N-[4-fluoro-2-[(1S,2S)-2-methoxycyclohexoxy]phenyl]-5-methyl-pyrrolo[3,2-d]pyrimidin-4-amine]	251 nM	–	–	–
50.1 nM	100 nM	CC(C)Oc1c(F)cccc1Nc1ncnc2ccn(C)c12 [Example 33, N-(3-fluoro-2-isopropoxy-phenyl)-5-methyl-pyrrolo[3,2-d]pyrimidin-4-amine]	25.1 nM	–	–	–
50.1 nM	50.1 nM	CC(C)Oc1cc(F)ccc1Nc1ncnc2cc(C(=O)NCCN3CCNCC3)n(C)c12 [Example 42, 4-{[4-Fluoro-2-(propan-2-yloxy)phenyl]amino}-5-methyl-N-[2-(piperazin-1-yl)ethyl]-5H-pyrrolo[3,2-d]pyrimidine-6-carboxamide]	100 nM	–	–	–
63.1 nM	79.4 nM	CC(C)Oc1cc(F)ccc1Nc1ncnc2cc(C(=O)NCCCN(C)C)[nH]c12 [Example 44, N-[3-(dimethylamino)propyl]-4-(4-fluoro-2-isopropoxy-anilino)-5H-pyrrolo[3,2-d]pyrimidine-6-carboxamide]	63.1 nM	–	–	–
1000 nM	2000 nM	CC(C)Oc1c(Nc2ncnc3ccn(C)c23)ccc(F)c1F [Example 32, N-(3,4-difluoro-2-isopropoxy-phenyl)-5-methyl-pyrrolo[3,2-d]pyrimidin-4-amine]	794 nM	–	–	–
251 nM	398 nM	CCOc1ncccc1Nc1ncnc2ccn(C)c12 [Example 34, N-(2-ethoxy-3-pyridyl)-5-methyl-pyrrolo[3,2-d]pyrimidin-4-amine]	126 nM	–	–	–
1260 nM	1580 nM	COc1ncccc1Nc1ncnc2ccn(C)c12 [Example 35, N-(2-methoxy-3-pyridyl)-5-methyl-pyrrolo[3,2-d]pyrimidin-4-amine]	1000 nM	–	–	–
12.6 nM	12.6 nM	CN(C)CCCNC(=O)c1cc2ncnc(N3CCc4cc(F)ccc43)c2[nH]1 [Example 39, N-[3-(dimethylamino)propyl]-4-(5-fluoroindolin-1-yl)-5H-pyrrolo[3,2-d]pyrimidine-6-carboxamide]	25.1 nM	–	–	–
158 nM	316 nM	Cn1ccc2ncnc(Nc3ccc(F)cc3OCC(F)F)c21 [Example 31, N-[2-(2,2-difluoroethoxy)-4-fluoro-phenyl]-5-methyl-pyrrolo[3,2-d]pyrimidin-4-amine]	50.1 nM	–	–	–
126 nM	200 nM	CCOc1cc(F)ccc1Nc1ncnc2ccn(C)c12 [Example 30, N-(2-ethoxy-4-fluoro-phenyl)-5-methyl-pyrrolo[3,2-d]pyrimidin-4-amine]	63.1 nM	–	–	–
251 nM	794 nM	Cn1ccc2ncnc(Nc3ccc(F)cc3O[C@H]3CCCC[C@@H]3O)c21 [Example 36, (1S,2S)-2-[5-fluoro-2-[(5-methylpyrrolo[3,2-d]pyrimidin-4-yl)amino]phenoxy]cyclohexanol]	39.8 nM	–	–	–
79.4 nM	126 nM	CC(C)Oc1cc(F)ccc1Nc1ncnc2cc[nH]c12 [Example 45, N-(4-fluoro-2-isopropoxy-phenyl)-5H-pyrrolo[3,2-d]pyrimidin-4-amine]	501 nM	–	–	–
